From US6492357B1, “Compositions and methods for controlling insects which damage rice and other crops” (Aventis CropScience, S.A., priority 1999, dated 2002)

Experiments:
Format in all cases: in vivo
[1] = test system: Cnaphalocrocis medinalis (rice leaf rollers); assay: Activity against Cnaphalocrocis medinalis (rice leaf rollers); settings: compound by itself
[2] = test system: Nephotettix cincticeps (green leaf hopper); assay: Activity against Nephotettix cincticeps (green leaf hopper), % mortality; settings: for activity against Nephotettix cincticeps (green leaf hoppers), in words: compound by itself
From the text: In experiments on activity against Nephotettix spp. (rice leaf hoppers), for example, Nephotettix cincticeps (green leaf hopper), carried out on representative compounds of the first preferred embodiment, the following results (wherein ppm indicates the concentration of the compound in parts per million of the test solution applied) have been obtained, as shown in Table 7: […]

[3] = test system: Nilaparvata lugens (brown planthoppers); assay: Activity against Nilaparvata lugens (brown planthoppers); settings: compound by itself

Structure (SMILES)	activity against Cnaphalocrocis medinalis (rice leaf rollers), in words [1]	activity against Nephotettix cincticeps (green leaf hoppers), in words [2]	activity against Nilaparvata lugens (brown planthoppers), in words [3]	activity against Cnaphalocrocis medinalis (rice leaf rollers), in words ([1]; listed as indoxacarb)	mortality at 6.25 ppm ([2]; Nephotettix cincticeps, Indoxacarb 6.25 ppm alone (Ethiprole 0 ppm)) [%]	mortality at 12.5 ppm ([2]; Nephotettix cincticeps, Indoxacarb 12.5 ppm alone (Ethiprole 0 ppm)) [%]	mortality at 25 ppm ([2]; Nephotettix cincticeps, Indoxacarb 25 ppm alone (Ethiprole 0 ppm)) [%]	activity against Nephotettix cincticeps (green leaf hoppers), in words ([2]; listed as indoxacarb)	activity against Nilaparvata lugens (brown planthoppers), in words ([3]; listed as indoxacarb)
CC[S+]([O-])c1c(C#N)nn(-c2c(Cl)cc(C(F)(F)F)cc2Cl)c1N (stereo not drawn) [Ethiprole, ethiprole]	not particularly active	some activity by itself	shows activity	–	–	–	–	–	–
COC(=O)N(C(=O)N1COC2(C(=O)OC)Cc3cc(Cl)ccc3C2=N1)c1ccc(OC(F)(F)F)cc1 (stereo not drawn) [Indoxacarb, indoxacarb]	very active	some activity by itself	not particularly active	active	0	16.2	38	active	not particularly effective
